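A five-concentration, 48-hour dose response in 96-well plates underlies each endpoint, interpolated linearly between surrounding concentrations. TGI: total growth inhibition.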
Key:
Assay in all cases: inhibition of tumour cell growth, NCI panel, 48 h
OVCAR-4 ovarian = tested on: OVCAR-4 ovarian
OVCAR-8 ovarian = tested on: OVCAR-8 ovarian
IGROV1 ovarian = tested on: IGROV1 ovarian
MOLT-4 leukemia = tested on: MOLT-4 leukemia
MDA-MB-231 breast = tested on: MDA-MB-231 breast
PC-3 prostate = tested on: PC-3 prostate
T-47D breast = tested on: T-47D breast
TK-10 renal = tested on: TK-10 renal
SF-295 CNS = tested on: SF-295 CNS
MCF7 breast = tested on: MCF7 breast
UO-31 renal = tested on: UO-31 renal
OVCAR-3 ovarian = tested on: OVCAR-3 ovarian
NCI-H460 lung = tested on: NCI-H460 lung
NCI-H226 lung = tested on: NCI-H226 lung
SF-539 CNS = tested on: SF-539 CNS
SN12C renal = tested on: SN12C renal
HCT-15 colon = tested on: HCT-15 colon
M14 melanoma = tested on: M14 melanoma
HCC-2998 colon = tested on: HCC-2998 colon
ACHN renal = tested on: ACHN renal
LOX IMVI melanoma = tested on: LOX IMVI melanoma
COLO 205 colon = tested on: COLO 205 colon
KM12 colon = tested on: KM12 colon
OVCAR-5 ovarian = tested on: OVCAR-5 ovarian
UACC-257 melanoma = tested on: UACC-257 melanoma
SK-MEL-2 melanoma = tested on: SK-MEL-2 melanoma
NCI-H23 lung = tested on: NCI-H23 lung
MDA-N = tested on: MDA-N
HOP-92 NSCLC = tested on: HOP-92 NSCLC
HOP-62 NSCLC = tested on: HOP-62 NSCLC
HL-60(TB) leukemia = tested on: HL-60(TB) leukemia
DU-145 prostate = tested on: DU-145 prostate
SNB-75 CNS = tested on: SNB-75 CNS
MDA-MB-435 = tested on: MDA-MB-435
SNB-19 CNS = tested on: SNB-19 CNS
HT29 colon = tested on: HT29 colon
U251 CNS = tested on: U251 CNS
SK-MEL-5 melanoma = tested on: SK-MEL-5 melanoma
EKVX NSCLC = tested on: EKVX NSCLC
786-0 renal = tested on: 786-0 renal
NCI/ADR-RES ovarian = tested on: NCI/ADR-RES ovarian
A549 NSCLC = tested on: A549 NSCLC
SK-MEL-28 melanoma = tested on: SK-MEL-28 melanoma
SW-620 colon = tested on: SW-620 colon
HCT-116 colon = tested on: HCT-116 colon
SK-OV-3 ovarian = tested on: SK-OV-3 ovarian
SR leukemia = tested on: SR leukemia
NCI-H522 lung = tested on: NCI-H522 lung
HS 578T breast = tested on: HS 578T breast
UACC-62 melanoma = tested on: UACC-62 melanoma
MALME-3M melanoma = tested on: MALME-3M melanoma
SF-268 CNS = tested on: SF-268 CNS

CC1(C)CC(=O)C(/C=N/c2nc(-c3ccccc3)cs2)=C(O)C1
TGI (OVCAR-4 ovarian): > 100 µM
TGI (OVCAR-8 ovarian): > 100 µM
TGI (IGROV1 ovarian): 87.9 µM
TGI (MOLT-4 leukemia): > 100 µM
TGI (MDA-MB-231 breast): 96.8 µM
TGI (PC-3 prostate): > 100 µM
TGI (T-47D breast): > 100 µM
TGI (TK-10 renal): > 100 µM
TGI (SF-295 CNS): > 100 µM
TGI (MCF7 breast): > 100 µM
TGI (UO-31 renal): > 100 µM
TGI (OVCAR-3 ovarian): > 100 µM
TGI (NCI-H460 lung): > 100 µM
TGI (NCI-H226 lung): > 100 µM
TGI (SF-539 CNS): 64.7 µM
TGI (SN12C renal): > 100 µM
TGI (HCT-15 colon): 63.7 µM
TGI (M14 melanoma): > 100 µM
TGI (HCC-2998 colon): > 100 µM
TGI (ACHN renal): > 100 µM
TGI (LOX IMVI melanoma): > 100 µM
TGI (COLO 205 colon): > 100 µM
TGI (KM12 colon): > 100 µM
TGI (OVCAR-5 ovarian): > 100 µM
TGI (UACC-257 melanoma): > 100 µM
TGI (SK-MEL-2 melanoma): > 100 µM
TGI (NCI-H23 lung): > 100 µM
TGI (MDA-N): > 100 µM
TGI (HOP-92 NSCLC): > 100 µM
TGI (HOP-62 NSCLC): > 100 µM
TGI (HL-60(TB) leukemia): > 100 µM
TGI (DU-145 prostate): > 100 µM
TGI (SNB-75 CNS): > 100 µM
TGI (MDA-MB-435): 73.6 µM
TGI (SNB-19 CNS): > 100 µM
TGI (HT29 colon): > 100 µM
TGI (U251 CNS): > 100 µM
TGI (SK-MEL-5 melanoma): > 100 µM
TGI (EKVX NSCLC): > 100 µM
TGI (786-0 renal): > 100 µM
TGI (NCI/ADR-RES ovarian): > 100 µM
TGI (A549 NSCLC): > 100 µM
TGI (SK-MEL-28 melanoma): > 100 µM
TGI (SW-620 colon): > 100 µM
TGI (HCT-116 colon): > 100 µM
TGI (SK-OV-3 ovarian): > 100 µM

CC(C)(C)[Si](C)(C)OCC1OC(n2cc(I)c(N)nc2=O)C(O[Si](C)(C)C(C)(C)C)C1O[Si](C)(C)C(C)(C)C (configuration not stated)
TGI (OVCAR-8 ovarian): 30.6 µM
TGI (SR leukemia): 81.7 µM
TGI (IGROV1 ovarian): 20.6 µM
TGI (MOLT-4 leukemia): 10.6 µM
TGI (NCI-H522 lung): 16.5 µM
TGI (MDA-MB-231 breast): 31.7 µM
TGI (PC-3 prostate): 25 µM
TGI (HS 578T breast): 36.6 µM
TGI (SF-295 CNS): 11.2 µM
TGI (OVCAR-3 ovarian): 24 µM
TGI (NCI-H460 lung): 22 µM
TGI (UACC-62 melanoma): 23.7 µM
TGI (SN12C renal): 26.6 µM
TGI (HCT-15 colon): 39.9 µM
TGI (M14 melanoma): 16.9 µM
TGI (ACHN renal): 22 µM
TGI (LOX IMVI melanoma): > 100 µM
TGI (COLO 205 colon): 36.3 µM
TGI (UACC-257 melanoma): 26.7 µM
TGI (SK-MEL-2 melanoma): 25.7 µM
TGI (MDA-N): 26.9 µM
TGI (HOP-92 NSCLC): 37.1 µM
TGI (HOP-62 NSCLC): 27.6 µM
TGI (DU-145 prostate): 28.6 µM
TGI (SNB-75 CNS): 28 µM
TGI (HT29 colon): 20.3 µM
TGI (MALME-3M melanoma): 34.6 µM
TGI (SK-MEL-5 melanoma): 23.2 µM
TGI (EKVX NSCLC): 38.4 µM
TGI (SF-268 CNS): 28.8 µM
TGI (786-0 renal): 9.09 µM
TGI (NCI/ADR-RES ovarian): > 100 µM
TGI (A549 NSCLC): 20.8 µM
TGI (SW-620 colon): > 100 µM
TGI (HCT-116 colon): 24 µM
TGI (SK-OV-3 ovarian): 32.8 µM
